Measurements published in patent US20250249006A1, “TREATMENT” (Verona Pharma PLC, priority 2024, published 2025).

How the values were obtained:
Type in all cases: in vivo
[1] = test system: patients aged 40-80 years with moderate to severe COPD; assay: Clinical studies, ensifentrine vs placebo: COPD symptom responders (E-RS −2 units or TDI +1 unit) in patients with low FEV1 response; details: for Odds in favor of a response, E-RS (−2 Unit) or TDI (+1 Unit) Responders / Ensifentrine vs. Placebo Odds Ratio, E-RS (−2 Unit) or TDI (+1 Unit) Responders / Ensifentrine vs. Placebo Odds Ratio, TDI (+1 Unit) or E-RS (−2 Unit) Responders / Odds in favor of a response, TDI (+1 Unit) or E-RS (−2 Unit) Responders: logistic regression; for Odds in favor of a response, E-RS (−2 Unit) or TDI (+1 Unit) Responders / Ensifentrine vs. Placebo Odds Ratio, E-RS (−2 Unit) or TDI (+1 Unit) Responders / % E-RS (−2 Unit) or TDI (+1 Unit) Responders / % responders, E-RS (−2 Units) or TDI (+1 Unit) Responders / Ensifentrine v placebo Odds Ratio, E-RS (−2 Units) or TDI (+1 Unit) Responders / Odds in favour of response, E-RS (−2 Units) or TDI (+1 Unit) Responders / Ensifentrine vs. Placebo Odds Ratio, TDI (+1 Unit) or E-RS (−2 Unit) Responders / Odds in favor of a response, TDI (+1 Unit) or E-RS (−2 Unit) Responders / % TDI (+1 Unit) or E-RS (−2 Unit) Responders: pooled mITT; for % E-RS (−2 Unit) or TDI (+1 Unit) Responders / % responders, E-RS (−2 Units) or TDI (+1 Unit) Responders / % TDI (+1 Unit) or E-RS (−2 Unit) Responders: 3 mg BID nebuliser; for % responders, E-RS (−2 Units) or TDI (+1 Unit) Responders / Ensifentrine v placebo Odds Ratio, E-RS (−2 Units) or TDI (+1 Unit) Responders / Odds in favour of response, E-RS (−2 Units) or TDI (+1 Unit) Responders: improvement in morning trough FEV1 less than 40 mL (table line prints <60 mL); for proportion of patients with a clinically important improvement in symptoms: over 24 weeks
Method: (§1) Clinical studies were conducted to determine the efficacy of ensifentrine in treating COPD compared with placebo. Ensifentrine was administered by nebuliser at a dose of 3 mg twice daily (BID) for 24 weeks. The studies were multi-centre, randomized, double-blind, parallel-group, placebo-controlled trials.
(§2) The study population included patients aged 40-80 years with moderate to severe COPD (FEV1 30%-70% p.n., FEV1/forced vital capacity (FVC) ratio<0.7, with mMRC≥2). The randomization stratified (a) the use of stable background maintenance LAMA or LABA therapy use (approx. 50%. yes or no) and (b) cigarette smoking (current or former). Inhaled corticosteroid (ICS) maintenance therapy was permitted in up to 20% of patients under certain provisions.
(§3) The primary endpoint was change from baseline in average FEV1 area under the curve AUC0-12h post-dose at week 12. Also assessed were COPD symptoms and quality of life (QoL) in patients showing lower responses in terms of lung function, and in particular patients with: (i) improvement in average FEV1 AUC0-12h of less than 100 mL and (ii) improvement in morning trough FEV1 of less than 100 mL, less than 60 mL or less than 40 mL.
COPD symptoms were assessed using Evaluating Respiratory Symptoms (E-RS; EXACT-Respiratory Symptoms, The minimal clinically important difference (MCID) of the E-RS is a total score of −2 units. User Manual (Version 3.0), October 2014) and Transitional Dyspnea Index (TDI; Mahler et al, The MCID of the transition dyspnea index is a total score of one unit. COPD 2005, 2:99-103.) and QoL was assessed using the St. George's Respiratory Questionnaire (SGRQ; Jones, St. George's Respiratory Questionnaire: The MCID of the SGRQ is a total score of −4 units. COPD 2005, 2:75-79.).

[2] = test system: patients aged 40-80 years with moderate to severe COPD; assay: Clinical studies, ensifentrine vs placebo: lung function (average FEV1 AUC0-12h)
Method: as §1, §2
as §3, with “mL. […]” for “mL.”
Average FEV1 AUC0-12h is defined as area under the curve over 12 hours of the FEV1, divided by 12 hours. […] Morning trough FEV1 is defined as the FEV1 assessed at 11.5 to 12 hours following the prior evening dose.

[3] = test system: patients aged 40-80 years with moderate to severe COPD; assay: Clinical studies, ensifentrine vs placebo: moderate/severe COPD exacerbations; details: nominally statistically significant
Method: as §1, §2
COPD exacerbations were defined as worsening of 2 or more major symptoms (dyspnea, sputum volume, and sputum purulence) or worsening of any 1 major symptom together with any 1 of the following minor symptoms: sore throat, colds, fever without other cause, and increased cough or wheeze for at least 2 consecutive days. COPD exacerbations were considered to be of moderate severity if treatment with systemic corticosteroids and/or antibiotics was required and were considered to be severe if hospitalization was required.

[4] = average FEV1 AUC0-12h <100 mL at Week 12, Week 12
[5] = average FEV1 AUC0-12h <100 mL at Week 12, Week 24
[6] = morning trough FEV1 <60 mL at Week 6, Week 6
[7] = morning trough FEV1 <60 mL at Week 12, Week 12
[8] = morning trough FEV1 <60 mL at Week 24, Week 24
[9] = morning trough FEV1 <100 mL at Week 6, Week 6
[10] = morning trough FEV1 <100 mL at Week 12, Week 12
[11] = morning trough FEV1 <100 mL at Week 24, Week 24

SMILES: COc1cc2c(cc1OC)-c1c/c(=N\c3c(C)cc(C)cc3C)n(CCNC(N)=O)c(=O)n1CC2 [Ensifentrine, N-(2-{(2E)-9,10-dimethoxy-4-oxo-2-[(2,4,6-trimethylphenyl)imino]-6,7-dihydro-2H-pyrimido[6,1-a]isoquinolin-3(4H)-yl}ethyl)urea]
- Odds in favor of a response, E-RS (−2 Unit) or TDI (+1 Unit) Responders ([1]; average FEV1 AUC0-12h <100 mL at Week 12, Week 6): 1.69
- Ensifentrine vs. Placebo Odds Ratio, E-RS (−2 Unit) or TDI (+1 Unit) Responders [1, 4]: 1.63
- Odds in favor of a response, E-RS (−2 Unit) or TDI (+1 Unit) Responders [1, 4]: 2.69
- Ensifentrine vs. Placebo Odds Ratio, E-RS (−2 Unit) or TDI (+1 Unit) Responders [1, 5]: 1.38
- Odds in favor of a response, E-RS (−2 Unit) or TDI (+1 Unit) Responders [1, 5]: 2.91
- % E-RS (−2 Unit) or TDI (+1 Unit) Responders ([1]; average FEV1 AUC0-12h <100 mL at Week 12, responders at Week 6): 66.3%
- % E-RS (−2 Unit) or TDI (+1 Unit) Responders ([1]; average FEV1 AUC0-12h <100 mL at Week 12, responders at Week 12): 71.2%
- % E-RS (−2 Unit) or TDI (+1 Unit) Responders ([1]; average FEV1 AUC0-12h <100 mL at Week 12, responders at Week 24): 72.7%
- % responders, E-RS (−2 Units) or TDI (+1 Unit) Responders ([1]; Week 6): 67.1%
- Ensifentrine v placebo Odds Ratio, E-RS (−2 Units) or TDI (+1 Unit) Responders ([1]; Week 6): 1.468
- Odds in favour of response, E-RS (−2 Units) or TDI (+1 Unit) Responders ([1]; Week 6): 1.453
- % responders, E-RS (−2 Units) or TDI (+1 Unit) Responders ([1]; Week 12): 70.4%
- Ensifentrine v placebo Odds Ratio, E-RS (−2 Units) or TDI (+1 Unit) Responders ([1]; Week 12): 1.433
- Odds in favour of response, E-RS (−2 Units) or TDI (+1 Unit) Responders ([1]; Week 12): 2.338
- % responders, E-RS (−2 Units) or TDI (+1 Unit) Responders ([1]; Week 24): 73.0%
- Ensifentrine v placebo Odds Ratio, E-RS (−2 Units) or TDI (+1 Unit) Responders ([1]; Week 24): 1.370
- Odds in favour of response, E-RS (−2 Units) or TDI (+1 Unit) Responders ([1]; Week 24): 3.238
- proportion of patients with a clinically important improvement in symptoms ([1]; increase in average FEV1 AUC0-12h less than 100 mL at Week 12): at least ⅔
- proportion of patients with a clinically important improvement in symptoms ([1]; increase in morning trough FEV1 less than 100 mL at Week 12): at least ⅔
- Ensifentrine vs. Placebo Odds Ratio, TDI (+1 Unit) or E-RS (−2 Unit) Responders [1, 6]: 1.42
- Odds in favor of a response, TDI (+1 Unit) or E-RS (−2 Unit) Responders [1, 6]: 1.35
- % TDI (+1 Unit) or E-RS (−2 Unit) Responders ([1]; morning trough FEV1 <60 mL at Week 6, responders at Week 6): 65.3%
- Ensifentrine vs. Placebo Odds Ratio, TDI (+1 Unit) or E-RS (−2 Unit) Responders [1, 7]: 1.59
- Odds in favor of a response, TDI (+1 Unit) or E-RS (−2 Unit) Responders [1, 7]: 2.83
- % TDI (+1 Unit) or E-RS (−2 Unit) Responders ([1]; morning trough FEV1 <60 mL at Week 12, responders at Week 12): 71.3%
- Ensifentrine vs. Placebo Odds Ratio, TDI (+1 Unit) or E-RS (−2 Unit) Responders [1, 8]: 1.36
- Odds in favor of a response, TDI (+1 Unit) or E-RS (−2 Unit) Responders [1, 8]: 2.74
- % TDI (+1 Unit) or E-RS (−2 Unit) Responders ([1]; morning trough FEV1 <60 mL at Week 24, responders at Week 24): 71.7%
- Ensifentrine vs. Placebo Odds Ratio, E-RS (−2 Unit) or TDI (+1 Unit) Responders [1, 9]: 1.43
- Odds in favor of a response, E-RS (−2 Unit) or TDI (+1 Unit) Responders [1, 9]: 1.47
- % E-RS (−2 Unit) or TDI (+1 Unit) Responders ([1]; morning trough FEV1 <100 mL at Week 6, responders at Week 6): 66.1%
- Ensifentrine vs. Placebo Odds Ratio, E-RS (−2 Unit) or TDI (+1 Unit) Responders [1, 10]: 1.73
- Odds in favor of a response, E-RS (−2 Unit) or TDI (+1 Unit) Responders [1, 10]: 2.96
- % E-RS (−2 Unit) or TDI (+1 Unit) Responders ([1]; morning trough FEV1 <100 mL at Week 12, responders at Week 12): 71.9%
- Ensifentrine vs. Placebo Odds Ratio, E-RS (−2 Unit) or TDI (+1 Unit) Responders [1, 11]: 1.42
- Odds in favor of a response, E-RS (−2 Unit) or TDI (+1 Unit) Responders [1, 11]: 2.75
- % E-RS (−2 Unit) or TDI (+1 Unit) Responders ([1]; morning trough FEV1 <100 mL at Week 24, responders at Week 24): 72.0%
- primary endpoint of average FEV1 (AUC)0-12h ([2]; Week 12, 3 mg BID nebuliser vs placebo): met
- improvement in lung function ([2]; all subgroups): statistically significant
- reduction in moderate/severe exacerbation rate and risk (time to first event) vs placebo ([3]; patients with improvement in average FEV1 AUC0-12h less than 100 mL): 37%
- reduction in moderate/severe exacerbation rate and risk (time to first event) vs placebo ([3]; patients with improvement in morning trough FEV1 less than 100 mL): approximately 40%
